According to patent publication US20250154127A1, “BICYCLIC HETEROARYL COMPOUNDS AND USES THEREOF” (ETERN BIOPHARMA (SHANGHAI) CO., LTD., priority 2022, published 2025):
Each block holds one compound with its values, some of them ahead of it.

Assays:
[1] = target: TEAD1(210-426) binding to YAP(50-100) (Homo sapiens, UniProt P28347); assay: TR-FRET Assay for TEAD1(210-426) Binding to YAP(50-100); conditions: His-TEAD 10 nM, YAP-Biotin peptide 50 nM
In short: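 10 nM His-TEAD1 preincubated 30 min at room temperature with compound (3-fold dilutions, 12 points, 1% DMSO), then 50 nM biotin-YAP peptide added.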

MSTO-211H cells = assay: Proliferation Assay (CellTiter-Glo Luminescent Cell Viability Assay); format: cell-based; conditions: Homo sapiens, 96 hours treatment
In short: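 MSTO-211H cells, 1,500/well in RPMI 1640 with 10% FBS, plated overnight, then treated 96 h with 9-point 3-fold compound series in duplicate (DMSO below 0.5%). Viability by CellTiter-Glo luminescence; inhibition relative to DMSO wells, IC50 by four-parameter fit.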

TEAD1(210-426) binding to YAP(50-100), sequence (P28347 209-426): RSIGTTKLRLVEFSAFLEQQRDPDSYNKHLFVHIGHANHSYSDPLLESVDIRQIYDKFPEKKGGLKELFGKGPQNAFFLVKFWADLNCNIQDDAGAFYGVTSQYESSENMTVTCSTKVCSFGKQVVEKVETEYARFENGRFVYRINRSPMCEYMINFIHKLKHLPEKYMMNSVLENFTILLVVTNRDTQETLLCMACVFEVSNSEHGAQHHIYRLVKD

Compound: CO[C@H]1C[C@@H](Nc2ccnc(Cn3ccc(-c4nn(-c5ccc(C(F)(F)F)cc5)c5ccccc45)cc3=O)n2)C1 [Compound 90, 1-((4-(((1s,3s)-3-methoxycyclobutyl)amino)pyrimidin-2-yl)methyl)-4-(1-(4-(trifluoromethyl)phenyl)-1H-indazol-3-yl)pyridin-2(1H)-one]
IC50 [1]: 100 to 1000 nM | IC50 (MSTO-211H cells): ≤ 1000 nM

Compound: CO[C@H]1C[C@H](Nc2ccnc(Cn3ccc(-c4nn(-c5ccc(C(F)(F)F)cc5)c5ccccc45)cc3=O)n2)C1 [Compound 91, 1-((4-(((1r,3r)-3-methoxycyclobutyl)amino)pyrimidin-2-yl)methyl)-4-(1-(4-(trifluoromethyl)phenyl)-1H-indazol-3-yl)pyridin-2(1H)-one]
IC50 [1]: ≤ 100 nM | IC50 (MSTO-211H cells): ≤ 1000 nM

Compound: CNc1nccc(Cn2ccc(-c3nn(-c4ccc(C(F)(F)F)cc4)c4ccccc34)cc2=O)n1 [Compound 92, 1-((2-(methylamino)pyrimidin-4-yl)methyl)-4-(1-(4-(trifluoromethyl)phenyl)-1H-indazol-3-yl)pyridin-2(1H)-one]
IC50 [1]: ≤ 100 nM | IC50 (MSTO-211H cells): ≤ 1000 nM

Compound: O=c1cc(-c2nn(-c3ccc(C(F)(F)F)cc3)c3ccccc23)ccn1Cc1ccnc(OCCO)n1 [Compound 93, 1-((2-(2-hydroxyethoxy)pyrimidin-4-yl)methyl)-4-(1-(4-(trifluoromethyl)phenyl)-1H-indazol-3-yl)pyridin-2(1H)-one]
IC50 [1]: ≤ 100 nM | IC50 (MSTO-211H cells): ≤ 1000 nM

Compound: CN(CCO)c1nccc(Cn2ccc(-c3nn(-c4ccc(C(F)(F)F)cc4)c4ccccc34)cc2=O)n1 [Compound 94, 1-((2-((2-hydroxyethyl)(methyl)amino)pyrimidin-4-yl)methyl)-4-(1-(4-(trifluoromethyl)phenyl)-1H-indazol-3-yl)pyridin-2(1H)-one]
IC50 [1]: ≤ 100 nM | IC50 (MSTO-211H cells): ≤ 1000 nM

Compound: O=c1cc(-c2nn(-c3ccc(C(F)(F)F)cc3)c3ccccc23)ccn1Cc1ccnc(N2CC(O)C2)n1 [Compound 95, 1-((2-(3-hydroxyazetidin-1-yl)pyrimidin-4-yl)methyl)-4-(1-(4-(trifluoromethyl)phenyl)-1H-indazol-3-yl)pyridin-2(1H)-one]
IC50 [1]: ≤ 100 nM | IC50 (MSTO-211H cells): ≤ 1000 nM

Compound: Cn1nc(Cn2ccc(-c3nn(-c4ccc(C(F)(F)F)cc4)c4ccccc34)cc2=O)ccc1=O [Compound 96, 2-methyl-6-((2-oxo-4-(1-(4-(trifluoromethyl)phenyl)-1H-indazol-3-yl)pyridin-1(2H)-yl)methyl)pyridazin-3(2H)-one]
IC50 [1]: ≤ 100 nM | IC50 (MSTO-211H cells): 1000 to 10000 nM

Compound: CNc1nccc(Cn2ccc(-c3nn(-c4ccc(C(F)(F)F)cc4)c4ncccc34)cc2=O)n1 [Compound 97, 1-((2-(methylamino)pyrimidin-4-yl)methyl)-4-(1-(4-(trifluoromethyl)phenyl)-1H-pyrazolo[3,4-b]pyridin-3-yl)pyridin-2(1H)-one]
IC50 [1]: ≤ 100 nM | IC50 (MSTO-211H cells): ≤ 1000 nM

Compound: CNc1cc(Cn2ccc(-c3nn(-c4ccc(C(F)(F)F)cc4)c4ncccc34)cc2=O)ncn1 [Compound 98, 1-((6-(methylamino)pyrimidin-4-yl)methyl)-4-(1-(4-(trifluoromethyl)phenyl)-1H-pyrazolo[3,4-b]pyridin-3-yl)pyridin-2(1H)-one]
IC50 [1]: ≤ 100 nM | IC50 (MSTO-211H cells): ≤ 1000 nM

Compound: CNc1nccc(Cn2ccc(-c3nn(-c4ccc(C(F)(F)F)cc4)c4nccnc34)cc2=O)n1 [Compound 99, 1-((2-(methylamino)pyrimidin-4-yl)methyl)-4-(1-(4-(trifluoromethyl)phenyl)-1H-pyrazolo[3,4-b]pyrazin-3-yl)pyridin-2(1H)-one]
IC50 [1]: ≤ 100 nM | IC50 (MSTO-211H cells): ≤ 1000 nM

Compound: O=c1cc(-c2nn(-c3ccc(C(F)(F)F)cc3)c3nccnc23)ccn1Cc1nccc(O)n1 [Compound 100, 1-((4-hydroxypyrimidin-2-yl)methyl)-4-(1-(4-(trifluoromethyl)phenyl)-1H-pyrazolo[3,4-b]pyrazin-3-yl)pyridin-2(1H)-one]
IC50 [1]: ≤ 100 nM | IC50 (MSTO-211H cells): ≤ 1000 nM

Compound: O=c1cc(-c2nn(-c3ccc(C(F)(F)F)cc3)c3ncccc23)ccn1Cc1nccc(O)n1 [Compound 101, 1-((4-hydroxypyrimidin-2-yl)methyl)-4-(1-(4-(trifluoromethyl)phenyl)-1H-pyrazolo[3,4-b]pyridin-3-yl)pyridin-2(1H)-one]
IC50 [1]: ≤ 100 nM | IC50 (MSTO-211H cells): ≤ 1000 nM

Compound: O=c1cc(-c2nn(-c3ccc(C(F)(F)F)cc3)c3nccnc23)ccn1Cc1ccnc(NCCO)n1 [Compound 102, 1-((2-((2-hydroxyethyl)amino)pyrimidin-4-yl)methyl)-4-(1-(4-(trifluoromethyl)phenyl)-1H-pyrazolo[3,4-b]pyrazin-3-yl)pyridin-2(1H)-one]
IC50 [1]: ≤ 100 nM | IC50 (MSTO-211H cells): ≤ 1000 nM

Compound: CNc1ccnc(Cn2ccc(-c3nn(-c4ccc(C(F)(F)F)cc4)c4nccnc34)cc2=O)n1 [Compound 104, 1-((4-(methylamino)pyrimidin-2-yl)methyl)-4-(1-(4-(trifluoromethyl)phenyl)-1H-pyrazolo[3,4-b]pyrazin-3-yl)pyridin-2(1H)-one]
IC50 [1]: 100 to 1000 nM | IC50 (MSTO-211H cells): ≤ 1000 nM

Compound: COc1ccnc(Cn2ccc(-c3nn(-c4ccc(C(F)(F)F)cc4)c4nccnc34)cc2=O)n1 [Compound 105, 1-((4-methoxypyrimidin-2-yl)methyl)-4-(1-(4-(trifluoromethyl)phenyl)-1H-pyrazolo[3,4-b]pyrazin-3-yl)pyridin-2(1H)-one]
IC50 [1]: 100 to 1000 nM | IC50 (MSTO-211H cells): ≤ 1000 nM

Compound: CN(CCO)c1nccc(Cn2ccc(-c3nn(-c4ccc(C(F)(F)F)cc4)c4nccnc34)cc2=O)n1 [Compound 106, 1-((2-((2-hydroxyethyl)(methyl)amino)pyrimidin-4-yl)methyl)-4-(1-(4-(trifluoromethyl)phenyl)-1H-pyrazolo[3,4-b]pyrazin-3-yl)pyridin-2(1H)-one]
IC50 [1]: ≤ 100 nM | IC50 (MSTO-211H cells): ≤ 1000 nM

Compound: CN(CCO)c1ccnc(Cn2ccc(-c3nn(-c4ccc(C(F)(F)F)cc4)c4nccnc34)cc2=O)n1 [Compound 107, 1-((4-((2-hydroxyethyl)(methyl)amino)pyrimidin-2-yl)methyl)-4-(1-(4-(trifluoromethyl)phenyl)-1H-pyrazolo[3,4-b]pyrazin-3-yl)pyridin-2(1H)-one]
IC50 [1]: ≤ 100 nM | IC50 (MSTO-211H cells): ≤ 1000 nM

Compound: Nc1nccc(Cn2ccc(-c3nn(-c4ccc(C(F)(F)F)cc4)c4ncccc34)cc2=O)n1 [Compound 109, 1-((2-aminopyrimidin-4-yl)methyl)-4-(1-(4-(trifluoromethyl)phenyl)-1H-pyrazolo[3,4-b]pyridin-3-yl)pyridin-2(1H)-one]
IC50 [1]: ≤ 100 nM | IC50 (MSTO-211H cells): ≤ 1000 nM

Compound: Nc1ccnc(Cn2ccc(-c3nn(-c4ccc(C(F)(F)F)cc4)c4ncccc34)cc2=O)n1 [Compound 110, 1-((4-aminopyrimidin-2-yl)methyl)-4-(1-(4-(trifluoromethyl)phenyl)-1H-pyrazolo[3,4-b]pyridin-3-yl)pyridin-2(1H)-one]
IC50 [1]: ≤ 100 nM | IC50 (MSTO-211H cells): ≤ 1000 nM

Continued, in another order:

IC50 [1]: ≤ 100 nM
Compound: O=c1cc(-c2nn(-c3ccc(C(F)(F)F)cc3)c3ccccc23)ccn1Cc1nccc(OCCO)n1 [Compound 81, 1-((4-(2-hydroxyethoxy)pyrimidin-2-yl)methyl)-4-(1-(4-(trifluoromethyl)phenyl)-1H-indazol-3-yl)pyridin-2(1H)-one]
IC50 (MSTO-211H cells): ≤ 1000 nM

IC50 [1]: ≤ 100 nM
Compound: COCCOc1nccc(Cn2ccc(-c3nn(-c4ccc(C(F)(F)F)cc4)c4ccccc34)cc2=O)n1 [Compound 82, 1-((2-(2-methoxyethoxy)pyrimidin-4-yl)methyl)-4-(1-(4-(trifluoromethyl)phenyl)-1H-indazol-3-yl)pyridin-2(1H)-one]
IC50 (MSTO-211H cells): ≤ 1000 nM

IC50 [1]: ≤ 100 nM
Compound: COc1cccc(Cn2ccc(-c3nn(-c4ccc(C(F)(F)F)cc4)c4ccccc34)cc2=O)n1 [Compound 83, 1-((6-methoxypyridin-2-yl)methyl)-4-(1-(4-(trifluoromethyl)phenyl)-1 H-indazol-3-yl)pyridin-2(1H)-one]
IC50 (MSTO-211H cells): ≤ 1000 nM

IC50 [1]: ≤ 100 nM
Compound: O=c1cc(-c2nn(-c3ccc(C(F)(F)F)cc3)c3ccccc23)ccn1Cc1nccc(N2CCOCC2)n1 [Compound 84, 1-((4-morpholinopyrimidin-2-yl)methyl)-4-(1-(4-(trifluoromethyl)phenyl)-1H-indazol-3-yl)pyridin-2(1H)-one]
IC50 (MSTO-211H cells): ≤ 1000 nM

IC50 [1]: ≤ 100 nM
Compound: O=c1cc(-c2nn(-c3ccc(C(F)(F)F)cc3)c3ccccc23)ccn1Cc1nccc(N2CC(O)C2)n1 [Compound 85, 1-((4-(3-hydroxyazetidin-1-yl)pyrimidin-2-yl)methyl)-4-(1-(4-(trifluoromethyl)phenyl)-1H-indazol-3-yl)pyridin-2(1H)-one]
IC50 (MSTO-211H cells): ≤ 1000 nM

IC50 [1]: ≤ 100 nM
Compound: O=c1cc(-c2nn(-c3ccc(C(F)(F)F)cc3)c3ccccc23)ccn1Cc1nccc(N2CCC(O)CC2)n1 [Compound 86, 1-((4-(4-hydroxypiperidin-1-yl)pyrimidin-2-yl)methyl)-4-(1-(4-(trifluoromethyl)phenyl)-1H-indazol-3-yl)pyridin-2(1H)-one]
IC50 (MSTO-211H cells): ≤ 1000 nM

IC50 [1]: ≤ 100 nM
Compound: O=c1cc(-c2nn(-c3ccc(C(F)(F)F)cc3)c3ccccc23)ccn1Cc1nccc(N2CC3(COC3)C2)n1 [Compound 87, 1-((4-(2-oxa-6-azaspiro[3.3]heptan-6-yl)pyrimidin-2-yl)methyl)-4-(1-(4-(trifluoromethyl)phenyl)-1H-indazol-3-yl)pyridin-2(1H)-one]
IC50 (MSTO-211H cells): ≤ 1000 nM

IC50 [1]: ≤ 100 nM
Compound: O=c1cc(-c2nn(-c3ccc(C(F)(F)F)cc3)c3ncccc23)ccn1Cc1cccnc1 [Compound 88, 1-(pyridin-3-ylmethyl)-4-(1-(4-(trifluoromethyl)phenyl)-1H-pyrazolo[3,4-b]pyridin-3-yl)pyridin-2(1H)-one]
IC50 (MSTO-211H cells): ≤ 1000 nM

IC50 [1]: ≤ 100 nM
Compound: O=c1cc(-c2nn(-c3ccc(C(F)(F)F)cc3)c3ccccc23)ccn1Cc1cccc(Cl)n1 [Compound 89, 1-((6-chloropyridin-2-yl)methyl)-4-(1-(4-(trifluoromethyl)phenyl)-1H-indazol-3-yl)pyridin-2(1H)-one]
IC50 (MSTO-211H cells): ≤ 1000 nM
